Source: ChEMBL document CHEMBL1201862, “PubChem BioAssay data set” (2004)
Activity calls are given as the source filed them. Rule as the data show it, for most assays here: actives have a measured EC50 and inactives only a lower limit.

Tests used:
[1] = Luminescence Cell-Based Dose Retest to Confirm Inhibitors of Cancer Stem Cells. [Related pubchem assays (depositor defined):AID2717, AID2721]; type: functional, Homo sapiens; conditions: Homo sapiens
[2] = system: Streptococcus sp. 'group A'; assay: Streptococcus pyogenes SK(-)GAS viability under kanamycin – luminescence, BacTiterGlo, confirmation, counter-screen for streptokinase expression inhibitor project, dose response (AID 1900); type: functional, organism-based
[3] = target: T1, Streptokinase A (Streptococcus pyogenes serotype M1, UniProt P10520); assay: viability-normalized secreted streptokinase activity reduction – plasminogen activation absorbance, OD405, dose response (AID 1914); type: functional, Streptococcus pyogenes M1 GAS;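 also: secreted streptokinase activity via plasminogen activation per viability signal from cell pellet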
T1 sequence (P10520 whole entry): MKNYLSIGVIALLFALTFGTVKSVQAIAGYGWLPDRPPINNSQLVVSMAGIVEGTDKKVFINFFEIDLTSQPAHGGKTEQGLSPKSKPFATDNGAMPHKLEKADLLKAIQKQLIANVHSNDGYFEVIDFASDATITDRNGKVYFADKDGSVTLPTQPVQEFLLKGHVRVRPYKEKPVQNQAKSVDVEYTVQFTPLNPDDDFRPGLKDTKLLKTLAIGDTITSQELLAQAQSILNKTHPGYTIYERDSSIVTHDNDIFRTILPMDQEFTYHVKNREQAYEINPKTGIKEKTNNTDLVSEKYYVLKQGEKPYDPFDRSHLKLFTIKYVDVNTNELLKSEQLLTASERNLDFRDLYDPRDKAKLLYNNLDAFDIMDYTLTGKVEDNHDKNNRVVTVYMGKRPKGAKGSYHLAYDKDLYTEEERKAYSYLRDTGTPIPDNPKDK

[4] = system: Streptococcus; assay: GAS UMAA2166 growth inhibition – luminescence, BacTiterGlo, counter-screen for streptokinase expression inhibitor project, dose response (AID 1915); type: functional, organism-based;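 also: potency for reduction of bacterial viability or growth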
[5] = target: T2, Heat shock factor protein 1 (Mus musculus, UniProt P38532); assay: enhancement of HSF1-driven luciferase signal – cell-based, NIH3T3, luminescence, dose retest, confirmation (AID 435004); type: functional;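 also: stress induced by proteasome inhibitor MG132 added 30 min after compound; luciferase reporter driven by HSF1 response element in NIH3T3 cells; actives raise luminescence as potentiators of the MG132 stress response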
T2 sequence (P38532 whole entry): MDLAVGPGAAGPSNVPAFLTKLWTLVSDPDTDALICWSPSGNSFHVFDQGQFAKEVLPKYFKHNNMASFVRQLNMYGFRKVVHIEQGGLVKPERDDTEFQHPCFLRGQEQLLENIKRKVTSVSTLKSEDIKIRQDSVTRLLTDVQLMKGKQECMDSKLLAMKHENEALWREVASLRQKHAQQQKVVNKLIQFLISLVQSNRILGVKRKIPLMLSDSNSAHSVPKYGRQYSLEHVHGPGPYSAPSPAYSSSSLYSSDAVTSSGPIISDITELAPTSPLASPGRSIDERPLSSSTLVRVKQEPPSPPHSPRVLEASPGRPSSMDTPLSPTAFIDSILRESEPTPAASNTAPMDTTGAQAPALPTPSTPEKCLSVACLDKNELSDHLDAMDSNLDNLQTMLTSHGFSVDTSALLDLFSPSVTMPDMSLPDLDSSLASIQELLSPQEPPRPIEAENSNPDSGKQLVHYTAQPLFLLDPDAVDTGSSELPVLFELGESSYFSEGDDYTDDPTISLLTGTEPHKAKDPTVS

[6] = target: Cytochrome P450 2C9 (Homo sapiens, UniProt P11712)
Cytochrome P450 2C9, sequence (P11712 whole entry): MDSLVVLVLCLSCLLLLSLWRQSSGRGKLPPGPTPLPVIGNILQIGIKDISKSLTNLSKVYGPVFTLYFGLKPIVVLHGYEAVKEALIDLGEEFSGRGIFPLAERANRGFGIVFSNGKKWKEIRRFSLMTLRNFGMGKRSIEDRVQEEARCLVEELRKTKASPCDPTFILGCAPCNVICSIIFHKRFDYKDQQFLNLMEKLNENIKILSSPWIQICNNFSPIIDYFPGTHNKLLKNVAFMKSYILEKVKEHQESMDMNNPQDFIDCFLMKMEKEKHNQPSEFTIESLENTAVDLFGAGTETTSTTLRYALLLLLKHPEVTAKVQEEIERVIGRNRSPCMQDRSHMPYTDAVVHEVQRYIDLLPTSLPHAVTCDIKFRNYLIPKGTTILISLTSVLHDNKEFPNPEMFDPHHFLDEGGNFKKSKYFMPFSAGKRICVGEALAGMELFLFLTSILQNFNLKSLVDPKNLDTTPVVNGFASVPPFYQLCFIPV

[7] = Luminescence Cell-Based Dose Response HTS to Identify Activators of Luciferase Translation or Activity in H4 […] Cells. [Related pubchem assays: 1829 (Project Summary), 1814 (Primary HTS)]; type: functional
[8] = system: H4; assay: Luminescence Cell-Based Dose Response HTS to Identify Activators of 5'UTR Stem-Loop Driven Prion Protein mRNA Translation in H4 Neuroglioblastoma Cells. [Related pubchem assays: 1829 (Project Summary), 1814 (Primary HTS)]; type: functional; conditions: Homo sapiens
[9] = system: INS1; assay: INS-1E survival protection against cytokine death – cell-based, luminescence, retest, dose response (AID 449756); type: functional; conditions: Rattus norvegicus;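 also: cell death triggered by IL-1 beta plus TNF-alpha plus IFN-gamma mixture; protective hits raise ATP signal compared with cytokine alone wells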
[10] = target: T3, Cytochrome P450 1A2 (Homo sapiens, UniProt P05177);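 also: PubChem cytochrome P450 panel assay, CYP1A2 panel member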
T3 sequence (P05177 whole entry): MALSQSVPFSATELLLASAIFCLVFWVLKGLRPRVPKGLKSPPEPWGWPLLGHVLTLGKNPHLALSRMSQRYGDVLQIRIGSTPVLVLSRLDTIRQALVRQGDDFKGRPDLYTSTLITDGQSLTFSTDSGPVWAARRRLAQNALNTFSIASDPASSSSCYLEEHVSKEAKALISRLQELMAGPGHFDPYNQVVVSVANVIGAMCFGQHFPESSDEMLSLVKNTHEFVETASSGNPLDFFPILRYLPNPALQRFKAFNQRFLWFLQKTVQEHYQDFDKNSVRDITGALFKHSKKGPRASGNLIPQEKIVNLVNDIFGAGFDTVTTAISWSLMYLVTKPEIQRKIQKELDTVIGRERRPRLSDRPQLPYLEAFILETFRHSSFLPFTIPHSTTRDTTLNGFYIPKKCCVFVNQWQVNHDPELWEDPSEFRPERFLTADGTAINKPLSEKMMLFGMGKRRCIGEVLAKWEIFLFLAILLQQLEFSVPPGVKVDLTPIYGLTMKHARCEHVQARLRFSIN

Row | Compound | AC50 [1] | EC50 [5] | other results
1 | NC(=O)CC(NC(=O)Cc1cccc2ccccc12)c1ccc(NC2CCCCCCC2)c([N+](=O)[O-])c1 (centres undefined) | 14.1 µM (active) | – | –
2 | O=c1cc(N2CCCCC2)c(-c2ccccc2)nn1Cc1ccc(Cl)cc1Cl | 1.65 µM (active) | – | EC50 [2]: 3.19 µM (active); EC50 [3]: > 150 µM (not active); EC50 [4]: 8.6 µM (active)
3 | Cn1c(N)c(C(=O)COC(=O)c2ccccc2C(=O)c2ccc(Cl)c([N+](=O)[O-])c2)c(=O)n(C)c1=O | 4.25 µM (active) | – | –
4 | COc1ccc(-n2nc3c(N4CCC(C(=O)NCCc5ccccc5C)CC4)nnc(C)c3c2C)cc1 | 4.03 µM (active) | – | –
5 | CN1/C(=C\C(=O)Nc2ccc(Br)cc2)C(C)(C)c2ccccc21 | 5.09 µM (active) | – | –
6 | CN1CCN(Cc2c(O)ccc3cc(Br)ccc23)CC1 | – | 11.2 µM (active) | –
7 | COc1cc(OC)cc(-c2nnc(SCC(=O)N(Cc3ccccc3)C(C)(C)C)o2)c1 | 0.618 µM (active) | – | –
8 | Cc1ccc(CSc2nc3ccccc3c(=O)n2CCCC(=O)NCc2ccco2)cc1 | – | > 260 µM (inactive) | –
9 | CCc1cc2c(SCC#N)ncnc2s1 | – | > 260 µM (inactive) | –
10 | CC(O)CC(C(=O)NNc1ccccc1)C(=O)NNc1ccccc1 (centres undefined) | 0.489 µM (active) | – | –
11 | O=C(Nc1cc(C(F)(F)F)ccc1N1CCCCC1)c1ccc(Br)o1 | 4.94 µM (active) | – | AC50 [6]: 1.41 µM (inconclusive)
12 | C=CCNC(=O)c1c(N)n(Cc2ccco2)c2nc3ccccc3nc12 | – | 43.4 µM (active) | –
13 | COc1ccc2[nH]c(C)c(CCNc3ccc(C(F)(F)F)cc3[N+](=O)[O-])c2c1 | – | > 260 µM (inactive) | –
14 | O=c1c2ccccc2[nH]c(=S)n1CCC1=CCCCC1 | – | > 260 µM (inactive) | –
15 | FC(F)(F)c1ccc(Sc2nnc(-c3cccs3)n2CC2CCCO2)nc1 (centres undefined) | – | > 260 µM (inactive) | –
16 | CCCc1nc2oc3cc(OC)ccc3c(=O)c2c(=O)n1CCc1ccccc1 | – | > 260 µM (inactive) | –
17 | CCCOC(=O)c1ccc(Oc2c[nH]nc2-c2ccc(O)cc2O)cc1 | – | > 260 µM (inactive) | EC50 [2]: > 150 µM (not active); EC50 [3]: > 150 µM (not active); EC50 [4]: > 150 µM (not active)
18 | CCC(NC(=O)/C(=C\c1ccc2c(c1)OCO2)NC(C)=O)C(=O)O (centres undefined) | – | > 260 µM (inactive) | –
19 | COc1ccc(C2N(C(=O)CN3CCCC3)CCCN2S(=O)(=O)c2ccccc2)cc1 (centres undefined) | – | > 260 µM (inactive) | –
20 | COc1ccc(NC(=O)COC(=O)/C=C/C(=O)OCC(=O)Nc2ccc(OC)c(Cl)c2)cc1Cl | – | 6.53 µM (active) | –
21 | COc1cccc(C=O)c1OCCCOc1cccc2cccnc12 | – | – | EC50 [7]: 16.4 µM (active); EC50 [8]: 28.1 µM (active)
22 | O=C1c2ccccc2C(=O)N1CCC(=O)N1CCCc2ccccc21 | – | > 260 µM (inactive) | –

Row | Compound | AC50 [1] | EC50 [5] | other results
23 | COc1ccc(-c2cn(Cc3ccc(C(=O)c4ccccc4)cc3)nn2)cc1 | – | – | EC50 [7]: 90.4 µM (active); EC50 [8]: 21.2 µM (active); AC50 [9]: 9.37 µM (active)
24 | Cc1nc(S(=O)(=O)c2ccc(Cl)cc2)c(NCc2ccccc2)o1 | – | > 260 µM (inactive) | –
25 | CC[C@@H]1CC=C[C@H]2[C@H]1C(=O)N(Cc1ccccc1)[C@H]2c1ccc(OC)c(Cl)c1 | 6.12 µM (active) | – | EC50 [2]: 6.67 µM (active); EC50 [3]: 4.05 µM (active); EC50 [4]: 16 µM (active)
26 | COC(=O)Cn1c2ccc(OC)cc2c2nc(C)sc21 | – | > 260 µM (inactive) | –
27 | O=C(/C(=C\c1ccccc1)c1nc2ccccc2[nH]1)c1ccc(Cl)cc1 | 3.28 µM (active) | – | –
28 | O=C(Nc1ccc(Cl)cc1)Nc1csc([N+](=O)[O-])c1 | – | 31.4 µM (active) | AC50 [9]: 7.03 µM (active)
29 | O=C(CN1C(=O)NC2(CCCC2)C1=O)NCCN1C(=O)S/C(=C\c2ccccc2F)C1=O | – | > 260 µM (inactive) | –
30 | Cc1ccc(S(=O)(=O)c2c(C)cc(C)nc2N2CCCCC2)cc1 | – | > 260 µM (inactive) | –
31 | Cc1cc(C)c(OCCCCN2CCNCC2)c(C)c1 | 3.23 µM (active) | – | –
32 | Cc1c(C(=O)N2CCOCC2)sc2nc(-c3ccccc3)cn12 | – | – | EC50 [7]: 3.66 µM (active); EC50 [8]: 28.8 µM (active)
33 | CC(Oc1ccc(Cl)cc1)C(=O)/C=C/N(C)C (centres undefined) | – | > 260 µM (inactive) | AC50 [10]: 15.8 µM (inconclusive)
34 | CC(C)c1ccc(C2NC(=O)c3ccccc3O2)cc1 (centres undefined) | – | 21.2 µM (active) | –
35 | COc1ccc(-c2sc3ccccc3c2-c2ccc(O)cc2)cc1 | 3.35 µM (active) | – | –
36 | O=C(CN1c2ccccc2S(=O)(=O)c2ccccc21)NCc1ccc(F)cc1 | – | > 260 µM (inactive) | –
37 | CCOC(=O)N1CCN(C(=O)CS(=O)(=O)c2cn(Cc3ccc(F)cc3)c3ccccc23)CC1 | – | > 260 µM (inactive) | –
38 | CCN(CC)S(=O)(=O)c1cccc(C(=O)N/N=C/c2cccc(O)c2O)c1 | 8.97 µM (active) | – | –
39 | O=c1cc(-c2ccccc2)[nH]n1-c1nc2ccccc2s1 | 2.45 µM (active) | – | EC50 [2]: 2.43 µM (active); EC50 [3]: > 150 µM (not active); EC50 [4]: 10.3 µM (active)
40 | COc1ccc(/C=N/NC(=O)c2cc(C34CC5CC(CC(C5)C3)C4)[nH]n2)cc1O | 1.16 µM (active) | – | –
41 | CNc1c(NS(=O)(=O)c2ccc(F)c(Cl)c2)c(=O)oc2ccccc12 | – | > 260 µM (inactive) | –
42 | COc1ccc2cc(/C=N/NC(=O)c3ccc(CN(c4cccc(Cl)c4Cl)S(C)(=O)=O)cc3)c(Cl)nc2c1 | < 0.16 µM (active) | – | –
43 | CC(C)=CCCC1(C)C=Cc2c(ccc3c2[nH]c2cc(O)c(C)cc23)O1 (centres undefined) | 2.9 µM (active) | – | EC50 [2]: 2.31 µM (active); EC50 [4]: 6.72 µM (active)
